Reference: patent US20230286979A1, “SALT OF DIHYDROPYRIDO[2,3-D]PYRIMIDINONE DERIVATIVE, PREPARATION METHOD THEREFOR, AND USE THEREOF” (NANJING CHIA TAI TIANQING PHARMACEUTICAL CO., LTD., priority 2020, published 2023)

Tested on: AKT kinase
Test: AKT kinase activity inhibition, summary statement of Test Example 1
Type: biochemical
Conditions: as demonstrated by Test Example 1
Experimental: g) The plate was sealed, the reaction solution was mixed until uniform and reacted at the room temperature for 1 h, and fluorescence signals were detected by using an ENVISION (Perkinelmer) instrument (320 nm stimulation, 665 nm, 615 nm emission). An inhibition rate in each well was calculated from all active wells and background signal wells, a mean value of repetitive wells was calculated, and the half inhibitory activity (IC50) of each compound to be tested was fitted by using the professional drawing analysis software PRISM 6.0.

CC(C)NC[C@@H](C(=O)N1CCN(c2ncnc3c2[C@H](C)CC(=O)N3)[C@H]2C[C@H]21)c1ccc(Cl)cc1 (single isomer, unassigned) [Isomer 2 of Example 1]
inhibiting effect on the AKT kinase activity: has an inhibiting effect
